Laboratory results from PMC10855341, “Inhibition of Apoptosis in a Model of Ischemic Stroke Leads to Enhanced Cell Survival, Endogenous Neural Precursor Cell Activation and Improved Functional Outcomes” (International Journal of Molecular Sciences, 2024).

System: neural precursor cells (NPCs) from SVZ neurospheres
Assay: In vitro NPC cell viability with cisplatin (DAPI+ counts)
Type: cell-based, adult mice (C57BL/6)
Details: 20 µM cisplatin alone, 8 h; mean ± SEM, n = 3 independent experiments
Description: NSC neurospheres were obtained from control […] C57BL/6 periventricular dissections, as described above. Neurospheres were collected and mechanically disassociated into single cells and plated in 96-well plates coated with 4% Matrigel (Corning 354234, Corning, NY, USA) at a density of 20,000 cells per well in 100 µL of SFM with […] epidermal growth factor (GIBCO, PMG8041, Waltham, MA, USA), […] basic fibroblast growth factor (GIBCO, PHG0266, Waltham, MA, USA) and 2 µg/mL heparin (Sigma-Aldrich, H3149, St. Louis, MO, USA) (referred to as growth factors). One day later, the media was removed and replaced with fresh SFM, growth factors, 20 µM cisplatin (Sigma-Aldrich, P4394, St. Louis, MO, USA) and 10 µM NWL283 (New World Laboratories, Laval, QC, Canada) in sterile PBS. The vehicle group received media containing SFM, growth factors and PBS.
To assess cell viability at 2 h and 8 h, cells were fixed with 4% PFA for 15 min and washed three times for 5 min in PBS. Cells were incubated for 10 min with 1:10,000 DAPI (Invitrogen, D130, Waltham, MA, USA), then washed three times for 5 min in PBS and imaged on an Axio Observer Zeiss microscope. DAPI cells were counted using ImageJ (https://imagej.net/ij/) analyze particle detection and then manually confirmed. Data were collected from three independent experiments.

N.N.[Cl][Pt][Cl] [cisplatin]
cell survival, DAPI+ cells: 49.09 ± 7.28 DAPI+ cells
